Test results reported in the supplement of paper PMC10307832.

Key:
Test in all cases: relative viability (nuclei count vs DMSO), 5 days (fraction); higher = more cells survive
[1] = system: COR-L 105
In short: (§1)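 Lung cancer cell lines, seeded in 1536-well plates, were treated the following day by pin tool with a single drug or with five library-drug doses (not always all listed) in √10 steps on top of a fixed anchor-drug dose. Cells were fixed and nuclei stained in one step after 5 days, and nuclei were counted. Relative viability is the nuclei count for treated wells divided by that for vehicle wells, reported as medians of duplicate plates.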

[2] = system: COR-L23
In short: as §1

[3] = system: EPLC-272H
In short: as §1

[4] = system: HARA
In short: as §1

[5] = system: HCC-15
In short: as §1

[6] = system: HCC-44
In short: as §1

[7] = system: HCC-827
In short: as §1

[8] = system: LCLC-103H
In short: as §1

[9] = system: NCI-H1395
In short: as §1

[10] = system: NCI-H1437
In short: as §1

[11] = system: NCI-H1792
In short: as §1

[12] = system: NCI-H1944
In short: as §1

[13] = system: NCI-H1975
In short: as §1

[14] = system: NCI-H2023
In short: as §1

[15] = system: NCI-H2085
In short: as §1

[16] = system: NCI-H2405
In short: as §1

[17] = system: NCI-H358
In short: as §1

[18] = system: NCI-H661
In short: as §1

[19] = system: NCI-H727
In short: as §1

[20] = system: SK-LU-1
In short: as §1

[21] = system: UMC-11
In short: as §1

## O=C(O)CCCCC(CCSCc1ccccc1)SCc1ccccc1 (centres undefined) [CPI-613] + CCNC(=O)c1noc(-c2cc(C(C)C)c(O)cc2O)c1-c1ccc(CN2CCOCC2)cc1 [Luminespib] (partner 0.01 µM)
[1]; first compound 5 µM
  relative viability: 0.749
[1]; first compound 15.81 µM
  relative viability: 0.727
[1]; first compound 50 µM
  relative viability: 0.692
[1]; first compound 158.11 µM
  relative viability: 0.421
[1]; first compound 500 µM
  relative viability: 0.127
[2]; first compound 5 µM
  relative viability: 0.58
[2]; first compound 15.81 µM
  relative viability: 0.61
[2]; first compound 50 µM
  relative viability: 0.664
[2]; first compound 158.11 µM
  relative viability: 0.108
[2]; first compound 500 µM
  relative viability: 0.0308
[3]; first compound 5 µM
  relative viability: 0.338
[3]; first compound 15.81 µM
  relative viability: 0.32
[3]; first compound 50 µM
  relative viability: 0.575
[3]; first compound 158.11 µM
  relative viability: 0.0624
[3]; first compound 500 µM
  relative viability: 0.0121
[4]; first compound 15.81 µM
  relative viability: 0.635
[4]; first compound 50 µM
  relative viability: 0.757
[4]; first compound 158.11 µM
  relative viability: 0.297
[4]; first compound 500 µM
  relative viability: 0.0024
[5]; first compound 5 µM
  relative viability: 0.297
[5]; first compound 15.81 µM
  relative viability: 0.424
[5]; first compound 50 µM
  relative viability: 0.304
[5]; first compound 158.11 µM
  relative viability: 0.0775
[5]; first compound 500 µM
  relative viability: 0.0498
[6]; first compound 5 µM
  relative viability: 0.964
[6]; first compound 15.81 µM
  relative viability: 0.939
[6]; first compound 50 µM
  relative viability: 1.04
[6]; first compound 158.11 µM
  relative viability: 0.495
[6]; first compound 500 µM
  relative viability: 0.121
[7]; first compound 5 µM
  relative viability: 0.416
[7]; first compound 15.81 µM
  relative viability: 0.615
[7]; first compound 50 µM
  relative viability: 0.774
[7]; first compound 158.11 µM
  relative viability: 0.633
[7]; first compound 500 µM
  relative viability: 0.329
[8]; first compound 5 µM
  relative viability: 0.924
[8]; first compound 15.81 µM
  relative viability: 0.825
[8]; first compound 50 µM
  relative viability: 0.846
[8]; first compound 158.11 µM
  relative viability: 0.811
[8]; first compound 500 µM
  relative viability: 0.269
[9]; first compound 5 µM
  relative viability: 0.672
[9]; first compound 15.81 µM
  relative viability: 0.828
[9]; first compound 50 µM
  relative viability: 0.749
[9]; first compound 158.11 µM
  relative viability: 0.665
[9]; first compound 500 µM
  relative viability: 0.659
[10]; first compound 5 µM
  relative viability: 1.09
[10]; first compound 15.81 µM
  relative viability: 1.04
[10]; first compound 50 µM
  relative viability: 1.07
[10]; first compound 158.11 µM
  relative viability: 0.53
[10]; first compound 500 µM
  relative viability: 0.0571
[11]; first compound 5 µM
  relative viability: 0.512
[11]; first compound 15.81 µM
  relative viability: 0.396
[11]; first compound 50 µM
  relative viability: 0.375
[11]; first compound 158.11 µM
  relative viability: 0.353
[11]; first compound 500 µM
  relative viability: 0.39
[12]; first compound 5 µM
  relative viability: 0.748
[12]; first compound 15.81 µM
  relative viability: 0.701
[12]; first compound 50 µM
  relative viability: 0.757
[12]; first compound 158.11 µM
  relative viability: 0.409
[12]; first compound 500 µM
  relative viability: 0.0599
[13]; first compound 5 µM
  relative viability: 0.173
[13]; first compound 15.81 µM
  relative viability: 0.171
[13]; first compound 50 µM
  relative viability: 0.194
[13]; first compound 158.11 µM
  relative viability: 0.141
[13]; first compound 500 µM
  relative viability: 0.28
[14]; first compound 5 µM
  relative viability: 0.791
[14]; first compound 15.81 µM
  relative viability: 0.692
[14]; first compound 50 µM
  relative viability: 0.736
[14]; first compound 158.11 µM
  relative viability: 0.052
[14]; first compound 500 µM
  relative viability: 0.0128
[15]; first compound 5 µM
  relative viability: 0.43
[15]; first compound 15.81 µM
  relative viability: 0.371
[15]; first compound 50 µM
  relative viability: 0.406
[15]; first compound 158.11 µM
  relative viability: 0.177
[15]; first compound 500 µM
  relative viability: 0.118
[16]; first compound 5 µM
  relative viability: 0.657
[16]; first compound 15.81 µM
  relative viability: 0.711
[16]; first compound 50 µM
  relative viability: 0.622
[16]; first compound 158.11 µM
  relative viability: 0.736
[16]; first compound 500 µM
  relative viability: 0.727
[17]; first compound 5 µM
  relative viability: 0.287
[17]; first compound 15.81 µM
  relative viability: 0.249
[17]; first compound 50 µM
  relative viability: 0.356
[17]; first compound 158.11 µM
  relative viability: 0.414
[17]; first compound 500 µM
  relative viability: 0.408
[18]; first compound 5 µM
  relative viability: 0.887
[18]; first compound 15.81 µM
  relative viability: 0.904
[18]; first compound 50 µM
  relative viability: 0.916
[18]; first compound 158.11 µM
  relative viability: 0.468
[18]; first compound 500 µM
  relative viability: 0.141
[19]; first compound 5 µM
  relative viability: 0.274
[19]; first compound 15.81 µM
  relative viability: 0.641
[19]; first compound 50 µM
  relative viability: 0.286
[19]; first compound 158.11 µM
  relative viability: 0.188
[19]; first compound 500 µM
  relative viability: 0.115
[20]; first compound 5 µM
  relative viability: 0.205
[20]; first compound 15.81 µM
  relative viability: 0.2
[20]; first compound 50 µM
  relative viability: 0.198
[20]; first compound 158.11 µM
  relative viability: 0.128
[20]; first compound 500 µM
  relative viability: 0.101
[21]; first compound 5 µM
  relative viability: 0.977
[21]; first compound 15.81 µM
  relative viability: 1.02
[21]; first compound 50 µM
  relative viability: 0.955
[21]; first compound 158.11 µM
  relative viability: 0.148
[21]; first compound 500 µM
  relative viability: 0.112
